The values that follow come from patent publication US4657891A, “Diuretic peptide, and production and use thereof” (Suntory Limited, priority 1984, dated 1987).

Bridge positions count the residues as written; N and C are the ends. Ends that are not written are not given here.

Data set [1] can be described thus: Repeated administration: antibody production, anaphylaxis shock, toxicity. The class given is in vivo.
Data set [2] can be described thus: Solubility in solvents. The class given is physicochemical. The text has this: (6) Solubility in solvents: soluble in water, partially in methanol, and acetic acid; insoluble in ethyl acetate, butyl acetate, ethyl ether, hexane, petroleum ether, benzene, and chloroform.
For data set [3], the system named is Male rats. Kind of data set: Another test: relative amounts of urine, Na+, K+, Cl- for 30 minutes before and after administration (Table 3). Particulars: Furosemide 0.3 μmol. It is filed as in vivo, rat.
Description: Male rats weighing 300 to 400 grams were anesthetized by intraperitoneal administration of pentobarbital at a dosage of 60 mg/kg, and used for tests of the β-rANP according to the method described in Life Sciences, Vol. 28, pp 89-94.
To keep the respiratory tract open, a tracheal cannula (PE-240 Clay-Adams) was inserted into the trachea. An arterial cannula (PE-50) was inserted into a femoral artery for measurement of the blood pressure, and a venous cannula was inserted into a femoral vein for the administration of Ringer's solution. 1.2 ml of Ringer's solution was infused at a flow rate of 1.2 ml/hour.
A bladder cannula made of silastic tube with a inner diameter of 0.02 inches and an outer diameter of 0.037 inches was inserted into the bladder, and via the cannula, a urine sample was collected into a test tube. The collection of urine was carried out for 30 minutes before administration of the test compound, and every five minutes after the administration.
A predetermined amount of the test compound β-rANP was dissolved in 50 μl of sterilized physiological saline with 5 μg of bacitracin, and the solution was injected into the jugular vein.
The subject of data set [4] is Male rats. Kind of data set: Diuretic and natriuretic test in anesthetized rats, urine collected before and 5 minutes after jugular vein injection (Table 2). It is filed as in vivo, rat. Particulars: furosemide 1.21 μmole (group IV). Here is the method: To keep the respiratory tract open, a tracheal cannula (PE-240 Clay-Adams) was inserted into the trachea. An arterial cannula (PE-50) was inserted into a femoral artery for measurement of the blood pressure, and a venous cannula was inserted into a femoral vein for the administration of Ringer's solution.
The collection of urine was carried out for 30 minutes before administration of the test compound, and every five minutes after the administration.
The control group (group I) was administered 50 μl of physiological saline containing only bacitracin.

Regarding “PSDRSALLKSKLRALLAGPRSLRRSSCFGGRIDRIGAQSGLGCNSFRY (disulfide 27-43) [β-rANP, β-rat atrial natriuretic polypeptide]”, the toxicity result in data set [1] (in vivo) was “little toxicity”. Further, the anaphylaxis shock result in data set [1] (repeated administration) is “does not cause”. In addition, the production of antibodies result in data set [1] (repeated administration) is “does not stimulate”. The Solubility in solvents result in data set [2] (ethyl acetate, butyl acetate, ethyl ether, hexane, petroleum ether, benzene, and chloroform) was “insoluble”; in data set [2] (methanol, and acetic acid), “partially”; in data set [2] (water), “soluble”.
As for `NS(=O)(=O)c1cc(C(=O)O)c(NCc2ccco2)cc1Cl` [Furosemide, furosemide], the “Urine volume, percentage after relating to before” value in data set [3] turned out to be 497 ± 165%. In addition, in data set [4] (A: sample collected 5 minutes after administration), the “Urine volume A” value came out at 167 ± 28 µL/min. Further, the “Urine volume B” value in data set [4] (B: sample collected 30 minutes before administration) came to 8.6 ± 1.9 µL/min.
